Consider one substance from patent US9241976B2, “Use of HDL-related molecules to treat and prevent proinflammatory conditions” (THE REGENTS OF THE UNIVERSITY OF CALIFORNIA, priority 2011, dated 2016).

One assay relates to p70s6 kinase. The experiment in a line: Insulin-stimulated phosphorylation of S6 kinase in OV2008 cells, Western blot. The class given is cell-based, human. Conditions: 10 μg/ml, insulin 200 nM. The method, then:
FIGS. 10A-10B. Effect of L-4F on the insulin-stimulated activation of downstream signaling molecules in OV2008 cells. After an overnight starvation, OV2008 cells were treated with L-4F (10 μg/ml) for 1 h, and insulin was added at a final concentration of 200 nM. Cell lysates were collected at various time points and subjected to Western blot analysis. FIG. 10A, L-4F inhibits insulin-stimulated phosphorylation of p70s6 kinase and subsequent HIF-1α expression in OV2008 cells. FIG. 10B, effect of L-4F on insulinstimulated phosphorylation of ERK1/2 and Akt in OV2008 cells.
Western blot analyses were performed as described previously (Gao et al., 2011). In brief, cell lysates were collected in a lysis buffer containing 0.1 MNaCl, 5 mM EDTA, 50 μM sodium orthovanadate, 1% Triton X-100, and protease inhibitor tablet (Roche Diagnostics, Indianapolis, Ind.) in 50 mM Tris buffer, pH 7.5, loaded onto 4 to 12% Bis-Tris gel (Invitrogen), transferred to polyvinylidene difluoride membrane, and incubated with the appropriate antibodies. […]
(In general: Immunoblotting shows a protein as a band on a membrane.)

Assay [1] concerns HDL anti-inflammatory properties. Conditions: 0.43 mg/kg daily, intravenous infusion 7 days or subcutaneously 28 days, patients with coronary heart disease (Watson and colleagues); cited from earlier work.
Assay [2] has as its system CT26 cells. Nature of the assay: LPA-induced viability of CT26 cells. The class given is cell-based, mouse. Particulars: L-4F 10 mg/mL with LPA 5, 10, 48 hours. As to the method: FIGS. 17A-17B. HDL mimetic, L-4F inhibits LPA induced viability of CT26 cells and reduces LPA levels in cell culture medium. FIG. 17A, CT26 cells were cultured as described in Example 5 and incubated with either L-4F at 10 mg/mL or LPA at a concentration 5, 10, […], or cells were treated with both L-4F and LPA for 48 hours. All experiments were conducted in triplicate and each assay was carried out in quadruplicates. Data are represented as the mean±SD of the percent of control cells. FIG. 17B, LPA levels were measured in the cell culture medium after 48 hours of treatment.
(§1) The peptides were dissolved in H2O.

A further assay concerns IL-6. Nature of the assay: Plasma IL-6 ELISA. It counts as in vivo, mouse. Conditions: lung tumor mice; 10 mg/kg/d subcutaneously for 3 weeks; vs control group. As to the method: Interleukin (IL)-6 concentrations were measured in plasma by a competition ELISA according to the manufacture's protocol (Invitrogen).
Another assay relates to HIF-1α. The experiment in a line: Hypoxia response element (HRE) luciferase reporter assay in OV2008 cells. It counts as cell-based, human. As to the method:
In brief, OV2008 cells were plated at 2×10^5 cells per well in a six-well plate and grown in complete media overnight. Then, pGL3-Epo-hypoxia response element (HRE)-Luc plasmid was transfected into cells by using Lipofectamine 2000 (Invitrogen). After 24 h, cells were starved overnight and subjected to L-4F treatment in the presence or absence of stimulators. A reporter assay system (Promega, Madison, Wis.) was used for the measurement of luciferase activity.
(In a reporter assay the amount or activity of a reporter protein is the signal.)

In another assay the test system is HIF-1α mRNA. The experiment in a line: HIF-1α mRNA, real-time RT-PCR. It counts as cell-based, human. As to the method:
Total RNA was extracted from cells by using a PureLink RNA Mini Kit (Invitrogen). The quantity and quality of RNA were assessed by using a SmartSpec 3000 Spectrophotometer (Bio-Rad Laboratories, Hercules, Calif.). cDNA was synthesized by using the High Capacity cDNA Reverse Transcription Kit (Applied Biosystems, Foster City, Calif.) according to the manufacturer's instructions. PCRs were performed by using the CFX96 realtime PCR system (Applied Biosystems). The cycling conditions were as follows: 3 min at 95° C. followed by 40 cycles of 95° C., 10 s; 60° C., 10 s; 72° C., 30 s followed by a final extension at 72° C. for 10 min. Each 25-μl reaction contained 0.4 μg of cDNA, 12.5 μl of SYBR Green qPCR SuperMix (Bio-Rad Laboratories), and 250 nM forward and reverse primers in nuclease-free water. […]
For orientation: Quantitative PCR measures a nucleic acid by following its amplification.

A further assay deals with ID8 cells. Conditions: cited from earlier work.
The subject of assay [3] is CT26 cells. The experiment in a line: CT26 proliferation assay (BrdU incorporation). It counts as cell-based, mouse. Particulars: Example 5; 10 mg/mL, 48 hours. As to the method:
The bHDL were dissolved in H2O.
as §1

Consider “Ac-DWFKAFYDKVAEKFKEAF-NH2 [L-4F, Ac-D-W-F-K-A-F-Y-D-K-V-A-E-K-F-K-E-A-F-NH2]”, for which the “insulin-stimulated phosphorylation of S6 kinase” value in the assay on p70s6 kinase is “prevented phosphorylation”. In assay [1], the HDL anti-inflammatory properties result is on record as “did not achieve any improvement”. Also, the LPA-induced viability result in the assay with CT26 cells [2] was “significantly reduced”. In addition, the “IL-6 levels in plasma” value in the assay on IL-6 is listed as “significantly decreased”. The “transcription of downstream HIF-1α target genes (HRE reporter), post-treatment” value in the assay on HIF-1α (OV2008 cells stimulated first with CoCl2 or insulin, 10 μg/ml) is recorded as “inhibition of the transcription”. In addition, the “CoCl2- and insulin-mediated induction of HRE luciferase activity” value in the assay with HIF-1α (OV2008 cells, 10 μg/ml pretreatment 1 h) is listed as “significantly inhibited”. Besides, the “basal level of HIF-1α mRNA” value in the assay on HIF-1α mRNA is reported as “no effect”. In addition, the “ID-8 cell-mediated tumor burden” value in the assay on ID8 cells (C57BL/6J mice, administered subcutaneously or orally, reference (17)) is “decreased”. In addition, in the assay on ID8 cells (immunocompetent mouse model of ovarian cancer, ID8 (Gao et al., 2011)), the “tumor growth and angiogenesis” value was “inhibited”. In addition, in the assay on CT26 cells [3], the “proliferation of CT26 cells, BrdUrd incorporation” value is reported as “significantly inhibited”.
